We go through five compounds from patent US12144792B2, “Therapeutic agents for neurodegenerative diseases” (priority 2016, dated 2024).

What all share (type): in vivo, human
The subject of data set [1] is patient with frontotemporal dementia with parkinsonism. The data set is described as follows: Case study, clinical examination. Particulars: Ex. 9, frontotemporal dementia with parkinsonism; L-Dopa and Ropinirol together. The text has this:
After approximately one month of acetyl-leucine treatment, medication was stopped and the patient was re-examined 13 days later.

Data set [2] relates to patients with amyotrophic lateral sclerosis (ALS). In words: Case studies, medical examination. Particulars: Ex. 7 Patient 1, ALS; before acetyl-DL-leucine. The text has this:
The results were documented by video.

Data set [3] has as its system patients with multiple system atrophy Parkinson type (MSA-P). In words: Case studies, clinical examination. An excerpt: Medication was stopped. […] The patient evaluated after one month on acetyl-DL-leucine. […] Episodes of mental confusion completely disappeared. The patient's cognitive structure seemed much clearer and straighter. […] The patient's spouse supported continuing the medication.

The test system of data set [4] is patient with corticobasal syndrome. In words: Case study, clinical examination. The conditions noted are these: Ex. 10, corticobasal syndrome. On the procedure:
Gait analysis was performed before treatment commenced. After 20 days of acetyl-leucine treatment, the patient was re-examined. […] After 8 weeks of acetyl-leucine treatment, medication was stopped and the patient was re-examined 6 days later.

In data set [5] the test system is patients with progressive supranuclear palsy. The data set is described as follows: Case studies, clinical examination. On the procedure: After 27 days of acetyl-leucine treatment, medication was stopped and the patient was re-examined 60 days later. […] Gait analysis was performed before treatment commenced. After 17 days of treatment, medication was stopped and the patient was re-examined 4 days later. […] Gait analysis was performed before treatment commenced. After three weeks of treatment, medication was stopped and the patient was re-examined.

Data set [6] has as its system patient with Lewy Body dementia. The data set is described as follows: Case study, clinical evaluation. The conditions noted are these: Ex. 17, Lewy Body dementia; Levodopa 100 mg 4× daily and Quetiapin 25 mg at night together. On the procedure:
The patient started taking acetyl-leucine (3 g/day for one week; 5 g/day thereafter) and was evaluated after four weeks. […] Medication was reduced to 3 g/day, and the patient was instructed to stop medication about two weeks later.

The subject of data set [7] is patients with downbeat nystagmus. In words: Case studies, clinical examination (visual acuity, posturography). The text has this: The patient was diagnosed with downbeat nystagmus: the patient was severely impaired by blurred vision (oscillopsia) due to the nystagmus, and experienced difficulties while reading and writing. The patient's visual acuity was: right 0.75, left 0.67, binocular 0.83, and the downbeat nystagmus was documented by video-oculography. […] […] […] The patient was able to suppress the nystagmus by visual fixation. In addition, the patient's spatial orientation was improved.

In the case of `CCCN(CCC)CCc1cccc2c1CC(=O)N2` [Ropinirol], the response to treatment result in data set [1] is recorded as “little improvement”.

Consider `Nc1nc2ccc(OC(F)(F)F)cc2s1` [Riluzol], for which the clinical symptomatology entry in data set [2] is recorded as “clinical symptomatology remained unchanged”.

Consider `N[C@@H](Cc1ccc(O)c(O)c1)C(=O)O` [L-Dopa], for which the response to treatment entry in data set [3] (Ex. 13 Patient 1, MSA-P, 100/25 mg 3× daily) is “discreet Levodopa response”; in data set [4] it was “no improvement”; in data set [1], “little improvement”; in data set [5] (Ex. 11 Patient 1, progressive supranuclear palsy), “little improvement”; in data set [5] (Ex. 11 Patient 2, PSP) it was “no levodopa response”; in data set [5] (Ex. 11 Patient 3, PSP), “no levodopa response”. The response to treatment entry in data set [5] (Ex. 11 Patient 4, PSP) was “slight levodopa response”; in data set [6], “improved the symptomatology”. Also, the tolerability result in data set [3] (Ex. 13 Patient 3, MSA-P) is recorded as “suspended due to side effects”.

In the case of `OCCOCCN1CCN(C2=Nc3ccccc3Sc3ccccc32)CC1` [Quetiapin], the response to treatment result in data set [6] is reported as “improved the symptomatology”.

Regarding `Nc1ccncc1` [4-aminopyridine], the response to treatment result is reported as “did not give rise to any benefit” in data set [7] (Ex. 12 Patient 1, downbeat nystagmus, 10 mg twice daily for four weeks) and “did not benefit” in data set [7] (Ex. 12 Patient 2, downbeat nystagmus).
